The source made the active and inactive calls.
Experiments:
[1] = biological target: T1, Short transient receptor potential channel 4 (Mus musculus, UniProt Q9QUQ5); test: block of DAMGO-driven TRPC4 calcium entry – cell-based, HEK293 TRPC4/mu-opioid, Fluo-4 calcium, dose response (AID 434942); format: functional;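 note: potency of inhibitors blocking the TRPC4 calcium response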
T1 sequence (Q9QUQ5 whole entry): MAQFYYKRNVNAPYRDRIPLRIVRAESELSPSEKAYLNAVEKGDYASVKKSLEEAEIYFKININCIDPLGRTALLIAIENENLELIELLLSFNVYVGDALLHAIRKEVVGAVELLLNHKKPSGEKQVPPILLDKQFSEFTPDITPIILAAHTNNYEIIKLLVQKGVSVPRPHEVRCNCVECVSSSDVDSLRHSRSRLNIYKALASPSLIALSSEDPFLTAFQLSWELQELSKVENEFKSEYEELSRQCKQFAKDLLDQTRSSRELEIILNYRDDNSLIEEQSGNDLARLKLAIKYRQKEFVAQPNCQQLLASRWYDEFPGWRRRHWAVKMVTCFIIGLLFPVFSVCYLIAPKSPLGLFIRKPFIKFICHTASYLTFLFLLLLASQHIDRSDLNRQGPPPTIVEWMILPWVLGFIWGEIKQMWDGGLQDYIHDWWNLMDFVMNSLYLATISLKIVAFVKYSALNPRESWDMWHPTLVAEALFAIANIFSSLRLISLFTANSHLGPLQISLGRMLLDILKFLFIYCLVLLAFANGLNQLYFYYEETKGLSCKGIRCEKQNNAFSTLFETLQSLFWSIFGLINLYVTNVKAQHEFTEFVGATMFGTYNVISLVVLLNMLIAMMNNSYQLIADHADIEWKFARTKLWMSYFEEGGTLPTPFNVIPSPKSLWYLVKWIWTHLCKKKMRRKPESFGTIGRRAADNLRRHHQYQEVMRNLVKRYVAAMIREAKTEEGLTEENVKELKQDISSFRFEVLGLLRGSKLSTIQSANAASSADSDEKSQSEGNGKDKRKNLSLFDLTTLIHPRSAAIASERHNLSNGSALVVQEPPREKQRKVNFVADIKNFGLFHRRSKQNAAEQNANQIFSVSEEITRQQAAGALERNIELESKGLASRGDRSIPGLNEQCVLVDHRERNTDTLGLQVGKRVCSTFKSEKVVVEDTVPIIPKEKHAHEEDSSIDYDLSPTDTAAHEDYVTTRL

[2] = biological target: Delta-type opioid receptor (Homo sapiens, UniProt P41143); test: Counterscreen for agonists of heterodimerization of the mu 1 (OPRM1) and delta 1 (OPRD1) opioid receptors: Luminescence-based cell-based high throughput dose response assay to identify agonists of OPRD1 homodimerization. [Related pubchem assays (depositor defined):AID504326, AID504355, AID504692, AID504904, AID504905]; format: functional
Mu-type opioid receptor = Mu-type opioid receptor (Homo sapiens, UniProt P35372); test: Counterscreen for agonists of heterodimerization of the mu 1 (OPRM1) and delta 1 (OPRD1) opioid receptors: Luminescence-based cell-based high throughput dose response assay to identify agonists of OPRM1 homodimerization.; format: functional;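 note: U2OS cells expressing OPRM1 and beta-arrestin as split beta-galactosidase partners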
[3] = biological target: 5-hydroxytryptamine receptor 5A (Homo sapiens, UniProt P47898); test: Counterscreen for agonists of OPRM1-OPRD1 heterodimerization: luminescence-based cell-based high throughput dose response assay to identify agonists of 5-hydroxytryptamine (serotonin) 5A receptor (HTR5A). [Related pubchem assays (depositor defined):AID504326, AID504355, AID504692, AID504904, AID504905]; format: functional
[4] = A Cell Based Secondary Assay To Explore Cytotoxicity of Compounds that Sensitize Mycobacterium Tuberculosis to Beta-Lactam Antibiotics.; format: functional
[5] = biological target: T1, Short transient receptor potential channel 4; test: calcium entry via TRPC4 opening agents – cell-based, HEK293 TRPC4/mu-opioid, Fluo-4 calcium, dose response (AID 434937); format: functional
[6] = biological target: T2, Microphthalmia-associated transcription factor (Homo sapiens, UniProt O75030); test: reducers of TRPM1 reporter luminescence, concentration series – cell-based, SK-MEL-5, cherry-picked, set 3, MITF inhibitor project, dose response (AID 493073); format: functional;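 note: SK-MEL-5 melanoma cells with luciferase driven by the MITF target TRPM1 promoter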
T2 sequence (O75030 whole entry): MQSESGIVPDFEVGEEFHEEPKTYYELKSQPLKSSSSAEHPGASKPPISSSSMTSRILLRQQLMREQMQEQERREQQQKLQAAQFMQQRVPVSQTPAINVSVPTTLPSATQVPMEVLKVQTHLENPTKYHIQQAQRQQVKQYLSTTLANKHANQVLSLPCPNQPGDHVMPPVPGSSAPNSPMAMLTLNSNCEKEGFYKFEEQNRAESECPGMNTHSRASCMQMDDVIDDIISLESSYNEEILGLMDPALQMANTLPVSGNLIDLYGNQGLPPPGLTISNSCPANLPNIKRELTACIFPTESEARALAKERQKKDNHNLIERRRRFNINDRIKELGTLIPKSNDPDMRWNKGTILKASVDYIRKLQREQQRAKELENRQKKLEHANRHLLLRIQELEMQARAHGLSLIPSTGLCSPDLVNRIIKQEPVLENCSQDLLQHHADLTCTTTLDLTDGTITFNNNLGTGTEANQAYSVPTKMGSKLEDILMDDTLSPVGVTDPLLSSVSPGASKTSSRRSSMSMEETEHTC

A-375 = test: MITF: Counter assay: A375 proliferation Measured in Cell-Based System Using Plate Reader - 2084-03_Inhibitor_Dose_DryPowder_Activity. [Related pubchem assays (depositor defined):AID488944]; format: functional; details: Homo sapiens
Escherichia coli [7] = test: microbe, parasite or virus in culture
Escherichia coli [8] = test: microbe, parasite or virus in culture; remark: listed apart in the source
BJ [9] = test: BJ-TERT fibroblast viability loss – cell-based, RAS-independent, luminescence, dose response (AID 1933); format: functional; details: Homo sapiens
BJ [10] = test: cells; format: functional, cell-based; details: Homo sapiens
BJ [11] = test: BJ-TERT-LT-ST fibroblast viability loss – cell-based, RAS-independent, luminescence, dose response (AID 1935); format: functional; details: Homo sapiens;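 note: BJ fibroblasts immortalized with TERT plus LT and ST oncogenes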
[12] = DRD fibroblast viability loss – cell-based, non-viral oncogenic, luminescence, dose response (AID 1934); format: functional; details: Homo sapiens
CHO-K1 = test: Counterscreen for antagonists of the orexin 1 receptor (OX1R; HCRTR1): Homogeneous time resolved fluorescence (HTRF)-based cell-based dose response assay to identify antagonists of the parental CHO-K1 cell line. [Related pubchem assays (depositor defined):AID434989, AID435008, AID463079, AID485270, AID492963, AID492964, AID492965, AID493232, AID504699, AID504701]; format: functional; details: Cricetulus griseus;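 note: potency for inhibition of ATP-stimulated IP1 production as antagonists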
Jurkat = test: blockers of NF-kB activation in T cells – Jurkat, luciferase reporter, luminescence, B- and T-cell, dose response (AID 489004); format: functional, cell-based; details: Homo sapiens;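 note: NF-kB luciferase reporter Jurkat cells stimulated with PMA plus ionomycin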
[13] = Counterscreen for antagonists of the orexin 1 receptor (OX1R; HCRTR1): Fluorescence-based cell-based high throughput dose response assay to identify antagonists of the parental CHO cell line. [Related pubchem assays (depositor defined):AID434989, AID435008, AID463079, AID485270, AID492963, AID492964, AID492965, AID493232, AID504699, AID504701]; format: functional
[14] = HEK-293T viability loss, compound-treated – cell-based, uHTS hits, cytotoxicity control for B/T-cell NF-kB inhibitor project, dose response (AID 489019); format: functional;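 note: IC50 reflects cytotoxicity as loss of cell viability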
[15] = biological target: T3, Orexin/Hypocretin receptor type 1 (Homo sapiens, UniProt O43613); test: Homogeneous Time Resolved Fluorescence (HTRF)-based cell-based high throughput dose response assay for antagonists of the orexin 1 receptor (OX1R; HCRTR1). [Related pubchem assays (depositor defined):AID434989, AID435008, AID463079, AID485270, AID492963, AID492964, AID492965, AID493232, AID504717, AID504718]; format: functional
T3 sequence (O43613 whole entry): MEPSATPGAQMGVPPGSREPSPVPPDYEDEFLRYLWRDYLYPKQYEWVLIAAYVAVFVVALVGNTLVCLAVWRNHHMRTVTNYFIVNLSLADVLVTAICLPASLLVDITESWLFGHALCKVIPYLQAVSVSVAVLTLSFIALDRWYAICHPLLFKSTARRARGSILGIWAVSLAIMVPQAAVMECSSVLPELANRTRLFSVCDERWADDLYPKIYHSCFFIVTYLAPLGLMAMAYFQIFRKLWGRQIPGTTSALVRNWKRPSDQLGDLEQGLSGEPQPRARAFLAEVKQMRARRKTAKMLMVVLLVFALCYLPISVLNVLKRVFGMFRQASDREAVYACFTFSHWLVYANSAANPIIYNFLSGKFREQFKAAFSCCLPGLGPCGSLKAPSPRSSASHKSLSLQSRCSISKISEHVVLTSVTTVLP

[16] = biological target: T3, Orexin/Hypocretin receptor type 1; test: Fluorescence-based cell-based high throughput dose response assay for antagonists of the orexin 1 receptor (OX1R; HCRTR1). [Related pubchem assays (depositor defined):AID434989, AID435008, AID463079, AID485270, AID492963, AID492964, AID492965, AID493232, AID504717, AID504718]; format: functional
Orexin receptor type 2 [17] = biological target: T4, Orexin receptor type 2 (Homo sapiens, UniProt O43614); test: Counterscreen assay for antagonists of the orexin 1 receptor (OX1R; HCRTR1): Fluorescence-based cell-based dose response assay for antagonists of the orexin 2 receptor (OX2R; HCRTR2), run by assay provider.; format: functional
T4 sequence (O43614 whole entry): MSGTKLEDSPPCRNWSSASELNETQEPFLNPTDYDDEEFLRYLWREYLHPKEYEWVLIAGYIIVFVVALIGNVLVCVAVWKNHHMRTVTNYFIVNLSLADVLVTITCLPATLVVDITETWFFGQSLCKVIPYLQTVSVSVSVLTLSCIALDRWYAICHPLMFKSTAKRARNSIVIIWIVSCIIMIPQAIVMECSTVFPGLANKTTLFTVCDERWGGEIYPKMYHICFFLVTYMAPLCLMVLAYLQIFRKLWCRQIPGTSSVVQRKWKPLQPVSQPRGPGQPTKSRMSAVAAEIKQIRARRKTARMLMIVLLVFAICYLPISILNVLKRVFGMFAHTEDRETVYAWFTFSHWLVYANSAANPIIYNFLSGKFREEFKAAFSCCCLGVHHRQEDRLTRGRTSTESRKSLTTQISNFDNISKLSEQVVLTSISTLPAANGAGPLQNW

Orexin receptor type 2 [18] = biological target: T4, Orexin receptor type 2; test: Counterscreen assay for antagonists of the orexin 1 receptor (OX1R; HCRTR1): Homogeneous Time Resolved Fluorescence (HTRF)-based cell-based dose response assay for antagonists of the orexin 2 receptor (OX2R; HCRTR2), run by assay provider.; format: functional
[19] = biological target: Peroxisome proliferator-activated receptor gamma/Nuclear receptor coactivator 1 (Homo sapiens, UniProt P37231); test: TR-FRET dose response biochemical High Throughput Screening assay for agonists of the steroid receptor coactivator 1 (SRC-1) recruitment by the peroxisome proliferator-activated receptor gamma (PPAR gamma): non-selective agonists. [Related pubchem assays (depositor defined):AID1300, AID1808, AID504735, AID631]; format: protein assay
[20] = biological target: Peroxisome proliferator-activated receptor gamma/Nuclear receptor coactivator 3 (Homo sapiens, UniProt P37231); test: TR-FRET dose response biochemical High Throughput Screening assay for agonists of the steroid receptor coactivator 3 (SRC-3) recruitment by the peroxisome proliferator-activated receptor gamma (PPAR gamma): non-selective agonists. [Related pubchem assays: 1301 (Confirmation screen.), 1048 (Primary screen.)]; format: functional
[21] = biological target: Peroxisome proliferator-activated receptor gamma/Nuclear receptor coactivator 2 (Homo sapiens, UniProt P37231); test: TR-FRET dose response biochemical High Throughput Screening assay for agonists of the steroid receptor coactivator 2 (SRC-2) recruitment by the peroxisome proliferator-activated receptor gamma (PPAR gamma): non-selective agonists. [Related pubchem assays: 1297, 1032 ]; format: functional
Vero = test: cells; format: functional, cell-based; details: Chlorocebus sabaeus

Chain of 5-hydroxytryptamine receptor 5A (P47898 whole entry): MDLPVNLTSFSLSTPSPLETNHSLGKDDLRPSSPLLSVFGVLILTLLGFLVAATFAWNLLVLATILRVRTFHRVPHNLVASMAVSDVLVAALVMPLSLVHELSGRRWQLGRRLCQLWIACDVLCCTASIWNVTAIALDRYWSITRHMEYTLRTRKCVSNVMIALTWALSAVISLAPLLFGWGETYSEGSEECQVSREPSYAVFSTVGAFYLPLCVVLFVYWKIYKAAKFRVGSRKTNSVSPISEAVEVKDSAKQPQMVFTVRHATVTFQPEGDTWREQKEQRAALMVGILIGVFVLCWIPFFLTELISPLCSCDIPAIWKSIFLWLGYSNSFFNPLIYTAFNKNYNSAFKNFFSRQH
Chain of Peroxisome proliferator-activated receptor gamma/Nuclear receptor coactivator 2 (P37231 whole entry): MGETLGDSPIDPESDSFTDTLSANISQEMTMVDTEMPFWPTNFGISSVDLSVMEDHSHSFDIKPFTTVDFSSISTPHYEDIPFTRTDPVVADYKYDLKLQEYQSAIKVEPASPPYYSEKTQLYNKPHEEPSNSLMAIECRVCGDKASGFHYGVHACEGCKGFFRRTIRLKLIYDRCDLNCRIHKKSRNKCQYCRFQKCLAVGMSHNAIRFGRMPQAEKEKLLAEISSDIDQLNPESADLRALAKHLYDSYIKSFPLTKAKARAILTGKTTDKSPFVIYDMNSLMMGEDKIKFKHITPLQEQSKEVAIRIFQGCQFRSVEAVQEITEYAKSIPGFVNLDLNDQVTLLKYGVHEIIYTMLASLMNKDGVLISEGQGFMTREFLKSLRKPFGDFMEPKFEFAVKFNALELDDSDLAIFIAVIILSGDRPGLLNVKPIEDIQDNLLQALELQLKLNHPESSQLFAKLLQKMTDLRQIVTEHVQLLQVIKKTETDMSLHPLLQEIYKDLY
Chain of Peroxisome proliferator-activated receptor gamma/Nuclear receptor coactivator 2 (Q15596 whole entry, further chain): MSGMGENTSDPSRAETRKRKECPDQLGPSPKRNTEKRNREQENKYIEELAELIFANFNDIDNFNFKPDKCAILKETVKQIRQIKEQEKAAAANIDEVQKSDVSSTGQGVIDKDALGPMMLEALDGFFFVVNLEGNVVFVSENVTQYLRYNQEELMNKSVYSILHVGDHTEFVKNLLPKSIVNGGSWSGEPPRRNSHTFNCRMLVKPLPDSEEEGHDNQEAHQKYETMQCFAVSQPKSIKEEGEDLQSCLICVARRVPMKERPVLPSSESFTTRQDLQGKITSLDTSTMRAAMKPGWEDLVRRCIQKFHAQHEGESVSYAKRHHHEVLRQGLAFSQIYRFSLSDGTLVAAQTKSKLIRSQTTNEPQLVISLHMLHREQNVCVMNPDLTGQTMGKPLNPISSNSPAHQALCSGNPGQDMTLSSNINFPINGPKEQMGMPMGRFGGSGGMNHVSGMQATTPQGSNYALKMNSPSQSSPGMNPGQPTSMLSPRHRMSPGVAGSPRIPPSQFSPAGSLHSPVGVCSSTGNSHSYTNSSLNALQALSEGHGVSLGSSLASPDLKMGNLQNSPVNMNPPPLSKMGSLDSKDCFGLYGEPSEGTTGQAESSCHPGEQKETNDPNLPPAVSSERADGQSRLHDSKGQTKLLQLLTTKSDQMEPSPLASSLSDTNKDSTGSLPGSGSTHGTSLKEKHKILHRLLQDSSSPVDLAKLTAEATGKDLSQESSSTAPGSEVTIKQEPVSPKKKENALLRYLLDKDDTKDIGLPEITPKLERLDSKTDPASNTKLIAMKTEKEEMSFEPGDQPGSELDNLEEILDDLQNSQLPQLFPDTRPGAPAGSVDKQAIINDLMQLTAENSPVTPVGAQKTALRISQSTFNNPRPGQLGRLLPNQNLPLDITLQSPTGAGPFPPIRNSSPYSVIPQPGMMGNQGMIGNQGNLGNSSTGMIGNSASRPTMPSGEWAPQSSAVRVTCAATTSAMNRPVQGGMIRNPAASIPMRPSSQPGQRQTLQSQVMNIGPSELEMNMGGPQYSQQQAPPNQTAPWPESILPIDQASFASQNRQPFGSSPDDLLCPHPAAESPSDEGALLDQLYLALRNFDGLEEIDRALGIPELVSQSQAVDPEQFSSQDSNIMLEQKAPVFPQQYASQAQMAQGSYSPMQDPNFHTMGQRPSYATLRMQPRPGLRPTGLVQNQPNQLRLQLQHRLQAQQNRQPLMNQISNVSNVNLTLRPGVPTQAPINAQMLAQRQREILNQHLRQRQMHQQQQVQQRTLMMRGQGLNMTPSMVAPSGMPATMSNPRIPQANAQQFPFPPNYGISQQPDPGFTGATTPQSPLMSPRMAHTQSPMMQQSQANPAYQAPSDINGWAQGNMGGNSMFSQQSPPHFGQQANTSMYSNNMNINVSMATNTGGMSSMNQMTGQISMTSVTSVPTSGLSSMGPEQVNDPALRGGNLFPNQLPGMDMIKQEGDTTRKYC
Chain of Peroxisome proliferator-activated receptor gamma/Nuclear receptor coactivator 1 (P37231 whole entry): as the sequence (P37231 whole entry) above
Chain of Peroxisome proliferator-activated receptor gamma/Nuclear receptor coactivator 1 (Q15788 whole entry, further chain): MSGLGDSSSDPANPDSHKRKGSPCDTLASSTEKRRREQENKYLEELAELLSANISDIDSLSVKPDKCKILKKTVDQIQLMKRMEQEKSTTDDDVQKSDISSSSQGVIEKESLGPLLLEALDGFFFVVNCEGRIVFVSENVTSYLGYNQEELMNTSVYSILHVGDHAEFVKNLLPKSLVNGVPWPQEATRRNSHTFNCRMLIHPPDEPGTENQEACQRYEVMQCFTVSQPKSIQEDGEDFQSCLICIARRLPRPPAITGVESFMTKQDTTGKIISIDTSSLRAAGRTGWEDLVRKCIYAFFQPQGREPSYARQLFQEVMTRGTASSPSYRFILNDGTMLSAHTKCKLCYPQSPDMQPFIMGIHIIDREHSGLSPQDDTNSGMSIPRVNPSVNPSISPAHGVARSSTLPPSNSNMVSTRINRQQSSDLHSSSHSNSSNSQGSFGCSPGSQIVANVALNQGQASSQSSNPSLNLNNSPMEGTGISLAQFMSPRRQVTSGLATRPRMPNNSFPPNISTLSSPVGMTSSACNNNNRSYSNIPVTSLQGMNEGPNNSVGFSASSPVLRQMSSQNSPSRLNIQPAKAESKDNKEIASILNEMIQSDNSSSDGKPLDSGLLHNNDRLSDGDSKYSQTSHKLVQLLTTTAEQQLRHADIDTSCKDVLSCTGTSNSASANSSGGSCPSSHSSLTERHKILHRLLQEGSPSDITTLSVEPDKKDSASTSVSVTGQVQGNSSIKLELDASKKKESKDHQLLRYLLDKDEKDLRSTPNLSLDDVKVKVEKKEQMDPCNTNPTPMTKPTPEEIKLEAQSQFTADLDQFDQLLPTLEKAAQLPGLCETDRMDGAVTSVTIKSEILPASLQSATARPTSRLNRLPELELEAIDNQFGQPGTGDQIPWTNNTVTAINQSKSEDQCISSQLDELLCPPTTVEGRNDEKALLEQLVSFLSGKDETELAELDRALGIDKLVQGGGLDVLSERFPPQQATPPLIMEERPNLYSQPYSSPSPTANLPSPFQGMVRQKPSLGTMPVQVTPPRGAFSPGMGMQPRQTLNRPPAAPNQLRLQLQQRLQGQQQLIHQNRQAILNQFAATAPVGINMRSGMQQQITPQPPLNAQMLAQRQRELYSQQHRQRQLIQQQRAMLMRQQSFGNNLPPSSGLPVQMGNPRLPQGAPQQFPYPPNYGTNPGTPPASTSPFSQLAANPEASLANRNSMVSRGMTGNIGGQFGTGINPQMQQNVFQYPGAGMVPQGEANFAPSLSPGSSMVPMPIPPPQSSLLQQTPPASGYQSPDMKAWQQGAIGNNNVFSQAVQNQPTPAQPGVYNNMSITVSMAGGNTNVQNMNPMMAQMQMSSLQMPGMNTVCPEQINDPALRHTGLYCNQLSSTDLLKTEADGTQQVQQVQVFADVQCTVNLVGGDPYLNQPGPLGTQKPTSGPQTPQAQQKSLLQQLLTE
Chain of Delta-type opioid receptor (P41143 whole entry): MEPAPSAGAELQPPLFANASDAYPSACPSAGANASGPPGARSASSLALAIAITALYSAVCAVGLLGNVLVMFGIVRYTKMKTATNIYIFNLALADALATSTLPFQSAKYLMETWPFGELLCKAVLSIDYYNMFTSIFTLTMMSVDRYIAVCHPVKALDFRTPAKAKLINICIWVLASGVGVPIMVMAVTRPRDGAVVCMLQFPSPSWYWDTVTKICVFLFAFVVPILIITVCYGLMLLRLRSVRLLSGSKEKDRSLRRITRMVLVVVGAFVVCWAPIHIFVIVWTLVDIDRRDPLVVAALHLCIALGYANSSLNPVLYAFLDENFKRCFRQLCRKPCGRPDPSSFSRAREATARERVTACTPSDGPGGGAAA
Chain of Mu-type opioid receptor (P35372 whole entry): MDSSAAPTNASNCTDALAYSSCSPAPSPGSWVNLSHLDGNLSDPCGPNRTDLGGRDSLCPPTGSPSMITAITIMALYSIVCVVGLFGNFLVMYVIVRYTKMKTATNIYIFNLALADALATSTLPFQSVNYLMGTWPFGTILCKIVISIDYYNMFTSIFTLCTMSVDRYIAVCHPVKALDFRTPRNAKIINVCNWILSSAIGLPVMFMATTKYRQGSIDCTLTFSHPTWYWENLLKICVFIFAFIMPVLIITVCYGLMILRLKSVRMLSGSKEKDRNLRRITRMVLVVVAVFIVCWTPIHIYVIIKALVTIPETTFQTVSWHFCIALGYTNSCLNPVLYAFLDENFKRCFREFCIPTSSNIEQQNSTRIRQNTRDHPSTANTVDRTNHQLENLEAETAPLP

COc1ccc2c(c1)C=C(CN1CCC(CO)(CCc3ccccc3)CC1)CO2
EC50 [1]: 2.11 µM (active) | EC50 [2]: 67.7 µM (inactive) | EC50 (Mu-type opioid receptor): 85.9 µM (inactive) | EC50 [3]: > 92.5 µM (inactive)

CC(C)C1CC(CCNCc2ccc(N(C)C)cc2)(c2ccccc2)CCO1 (configuration not stated)
CC50 [4]: 33.3 µM (active) | EC50 [5]: 6.68 µM (active) | AC50 [6]: 11.1 µM (active) | AC50 (A-375): 20.7 µM (active)

O=C(NCc1ccccc1)c1ccc(CS(=O)(=O)c2ccccc2)o1
AC50 (Escherichia coli [7]): 28.6 µM (active)

CC(C)(C)OC(=O)N1CCCC(C(=O)Nc2cccc(C(=O)NCCc3ccccc3)c2)C1 (configuration not stated)
AC50 (Escherichia coli [7]): 21.1 µM (active) | AC50 (Escherichia coli [8]): 322 µM (active)

Cc1nn(-c2ccccc2)c(C)c1/C=N/NC(=O)c1cc(-c2cccs2)[nH]n1
EC50 (BJ [9]): 0.66 µM (inconclusive) | EC50 (BJ [10]): 0.79 µM (active) | EC50 (BJ [11]): 0.601 µM (inconclusive) | EC50 [12]: 0.644 µM (inconclusive) | IC50 (CHO-K1): > 66.2 µM (inactive) | IC50 (Jurkat): 10.3 µM (active) | IC50 [13]: > 49.7 µM (inactive) | IC50 [14]: 9.45 µM (active) | IC50 [15]: 2.99 µM (active) | IC50 [16]: 3.99 µM (active) | IC50 (Orexin receptor type 2 [17]): 37 µM (inactive) | IC50 (Orexin receptor type 2 [18]): > 50 µM (inactive)

Sc1nnc(-c2ccccn2)n1/N=C/c1ccc(-c2ccccc2Br)o1
EC50 [19]: 2.75 µM (active) | EC50 [20]: > 79.4 µM (not active) | EC50 [21]: 2.83 µM (active) | IC50 (Vero): 23.4 µM (active)

Source: ChEMBL document CHEMBL1201862, “PubChem BioAssay data set” (2004)
